Measured values published in patent US7824868B2, “Formation of superfibronectin by BBK32 and uses therefor” (priority 2007, dated 2010).

B1: BBK32(21-354): Recombinant intact BBK32 protein, residues 21-354, including the C-terminal globular domain (SEQ ID NO: 5) (protein)
chain: DLFIRYEMKEESPGLFDKGNSILETSEESIKKPIKKPMNKKGKGKIARKKGKSKVSRKEPYIHSLKRDSANKSNFLQKNVILEEESLKTELLKEQSETRKEKIQKQQDEYKGMTQGSLNSLSGESGELEEPIESNEIDLTIDSDLRPKSSLQGIAGSNSISYTDEIEEEDYDQYYLDEYDEEDEEEIRLSNRYQSYLEGVKYNVDSAIQTITKIYNTYTLFSTKLTQMYSTRLDNFAKAKAKEEAAKFTKEDLEKNFKTLLNYIQVSVKTAANFVYINDTHAKRKLENIEAEIKTLIAKKIEQSNLYEAYKAIVTSILLMRDSLKEVQGIIDKNGVWY
modifications: recombinant peptide from residues 21-354 of BBK32
B2: BBK32(21-205): Recombinant fibronectin-binding segment, residues 21-205, of Borrelia burgdorferi lipoprotein BBK32 (SEQ ID NO: 6) (protein)
chain: DLFIRYEMKEESPGLFDKGNSILETSEESIKKPIKKPMNKKGKGKIARKKGKSKVSRKEPYIHSLKRDSANKSNFLQKNVILEEESLKTELLKEQSETRKEKIQKQQDEYKGMTQGSLNSLSGESGELEEPIESNEIDLTIDSDLRPKSSLQGIAGSNSISYTDEIEEEDYDQYYLDEYDEEDEEEIRL
modifications: recombinant peptide from residues 21-205 of BBK32

Assays:
[1] = tested on: purified plasma fibronectin; assay: Fibronectin aggregation assay (O.D.600); type: biochemical, human; conditions: for induction of plasma fibronectin aggregation (in words): 1 μM purified plasma fibronectin, absorbance at 600 nm
Description: BBK32, FnbpA peptide D3, Anastellin, and purified plasma fibronectin were centrifuged at 14,000 rpm for 15 minutes and then filtered through 0.22 μm PES syringe filters (Nalgene, Rochester, N.Y.). Following filtration, BBK32, FnbpA peptide D3, and Anastellin were titrated into 1 μM purified plasma fibronectin in TBS. After the addition of each aliquot, the fibronectin/protein mixture was carefully mixed five times with a 200 μl pipette and optical density at 600 nm was measured using a BioPhotometer (Eppendorf, New York, N.Y.) after 10 seconds.

[2] = tested on: human umbilical vein endothelial cells (HUVECs); assay: Endothelial cell proliferation assay; type: cell-based; conditions: 72 hours; for effect on proliferation of endothelial cells (in words): cell counts
Description: Cells were seeded onto tissue culture plates in full media and allowed to adhere for two hours. […] Cells were then incubated for 72 hours at 37° C., 5% CO2. After 72 hours, wells were washed, trypsinized, and counted (three counts/well, three wells/dose) using a hemacytometer.
1×10^4 human umbilical vein endothelial cells (HUVECs) (Cambrex) were seeded into Costar 24 well tissue culture plates in endothelial growth media-2 (EGM-2) (Cambrex) and allowed to adhere for two hours. After two hours, BBK32, Anastellin, and FnbpA peptide D3 were added in a dose dependent manner (triplicate) to the wells suspended in EGM-2. Cells were allowed to incubate for 72 hours at 37° C., 5% CO2. After 72 hours, wells were washed with PBS and cells were trypsinized with 0.5% trypsin/EDTA (Cambrex). Trypsinized cells were collected in microcentrifuge tubes and trypsin/EDTA was neutralized with EGM-2. Cells were counted from each well (three counts/well, three wells/dose) using a hemacytometer.

[3] = tested on: fibronectin matrix of normal human dermal fibroblasts (NHDFs); assay: Effects on fibronectin matrix assembled by normal human dermal fibroblasts (immunostaining); type: cell-based; conditions: 5 μM, 20 hours
Description: Cells were treated for 20 hours and then fixed. […] Treated cells were incubated for 20 hours and probed with Alexa Fluor 488-anti-fibronectin, monoclonal antibody IST-1, and monoclonal antibody IST-9. Images were taken using LSM 510 Confocal Microscope. Bar=10 μm.
4×10^4 adult normal human dermal fibroblasts (NHDFs) (Cambrex, East Rutherford, N.J.) were seeded onto glass coverslips in 24 well Costar tissue culture plates in Fibroblast growth media-2 (FGM-2) (Cambrex). Cells were allowed to grow for 48 hours and then BBK32, Anastellin, or FnbpA peptide D3 was added to a final concentration of 5 μM in FGM-2. Treated cells were incubated for 20 hours at 37° C., 5% CO2. After incubation, cells were washed with Dulbecco's PBS (DPBS) (Gibco, Invitrogen, Carlsbad, Calif.) and fixed with 2% paraformaldehyde for 30 minutes at room temperature. Following washing with DPBS, cells were blocked with 1% BSA for one hour at room temperature. Cells were then probed with Alexa Fluor 488-anti-fibronectin, Texas Red anti-His, monoclonal antibodies IST-1 (plasma and cellular fibronectin) and IST-9 (cellular fibronectin) (abcam, Cambridge, UK) or combinations of antibodies at a dilution of 1:3000 for one hour at room temperature. Following extensive washing with DPBS, appropriate fluorescently labeled secondary antibodies (Alexa Fluor 594-goat anti-mouse) (Invitrogen, Carlsbad, Calif.) were added at a dilution of 1:3000 and incubated for one hour at room temperature. After incubation, cells were washed extensively with DPBS and coverslips were mounted using Gel/Mount (biømeda, Foster City, Calif.) onto glass slides and images were taken using a LSM 510 Confocal Microscope (Zeiss).

[4] = target: T1, ^1F3 fibronectin module (Homo sapiens, UniProt P02751); assay: ELISA-type binding assay, immobilized 1F3 module
T1 construct: His-tag (N); made in house
Description: Binding to ^1F3 (FIG. 1A), ^1-2F3 (FIG. 1B), and ^3F3 (FIG. 1C) was assessed using ELISA-type assays. F3 modules were immobilized in microtiter wells and blocked with Ovalbumin.
Binding of BBK32 to F3 modules was tested by coating 1 μg of recombinant ^1F3, ^1-2F3, and ^3F3 modules in 50 μl of 50 mM Tris-HCl, 150 mM NaCl, pH 7.5 (TBS) per well in Immulon 4HBX microtiter plates (Dynatech Laboratories, Chantilly, Va.) and incubating overnight at 4° C. The next day, the wells were washed with 200 μl TBS, 0.05% Tween 20, pH 7.4 (TBST) and blocked with 200 μl TBST containing 2% ovalbumin (Sigma, St. Louis, Mo.) for one hour at room temperature. […] Plates were incubated for one hour at room temperature. After washing with TBST, primary antibodies (rabbit IgG anti-BBK32 or rabbit IgG anti-FnbpA) were added to each well at a 0.48 μg/ml. Plates were incubated for one hour at room temperature and then were washed again with TBST.
Following washing, a 1:3000 dilution of HRP-conjugated goat-anti-rabbit antibodies (BioRad, Hercules, Calif.) was added to each well. Plates were incubated for one hour at room temperature and then washed with TBST. […] Absorbance was measured at 450 nm using a Thermo Max microplate reader (Molecular Devices, Sunnyvale, Calif.). Apparent Kds were calculated by assessing maximal half-binding (Y=Bmax·X/(Kd+X)).

[5] = tested on: fibronectin matrix assembly; conditions: cited from earlier work
[6] = tested on: plasma fibronectin; assay: Proteolytic (thermolysin) digestion of fibronectin aggregates; type: biochemical, human; conditions: 20 μM inducer, 1 μM plasma fibronectin, 5 μg/ml thermolysin 2 hours, SDS-PAGE
Description: The sequences obtained, SSPVVID (SEQ ID No. 12), AVEENQE (SEQ ID No. 13), and ITETIP (SEQ ID No. 14), were located to the end of ^13F3, middle of ^3F3, and the start of ^1F3, respectively for both BBK32/fibronectin and Anastellin/fibronectin. Pre-stained protein standard (New England Biolabs).
BBK32, Anastellin, and plasma fibronectin were dialyzed into thermolysin digestion buffer (25 mM Tris, 0.5 mM EDTA, pH 8, 50 mM NaCl, and 2.5 mM CaCl2). 20 μM BBK32 or 20 μM Anastellin was added to 1 μM plasma fibronectin. Solutions were mixed and aggregates were allowed to form for one hour at room temperature. After one hour incubation, 5 μg/ml thermolysin (Sigma) was added to the BBK32-sFn, the Anastellin-sFn, and to plasma fibronectin. The solutions were incubated at room temperature with end-over-end mixing for 2 hours. Digestion was stopped after two hours with the addition of EDTA to a final concentration of 5 mM. Samples were then run on 4-20% gradient SDS-PAGE gels under non-reducing conditions. […] Excess stain was removed with 40% methanol and bands that were present in BBK32-sFn and Anastellin-sFn, but not in plasma fibronectin lanes, were excised and analyzed by N-terminal sequencing using Edman degradation (Protein Sequencing Division, Tufts University Core Facility, Boston, Mass.).

[7] = tested on: leukocyte (mononuclear cell) migration across endothelial cell layer; assay: Transendothelial migration assay (Transwell); type: cell-based; conditions: IL-4 treated endothelial layer, IL-8 chemoattractant, four hours
Description: To determine if sFn decrease the migration of leukocytes to the infection site, transendothelial migration assays were assessed. In these assays endothelial cells were grown to confluence in Transwell® inserts and were encouraged to form tight junctions using interleukin 4 (IL-4). SFn formation was then induced to form on the surface of the endothelial cell layer using BBK32 (21-354), (21-205) and (153-175). A chemoattractant (IL-8) was added to the bottom chamber of the Transwell setup. Mononuclear cells were added to the upper chamber and permitted to migrate for four hours. Following incubation, cells in the bottom chamber were counted.

[8] = Stability of recombinant protein; type: physicochemical
[9] = tested on: fibronectin 56 kDa and 45 kDa gelatin binding fragments; assay: Far Western blot of thermolysin digest of fibronectin; conditions: 56 kDa fragment vs 45 kDa gelatin binding fragment
Text: BBK32 binds to the ^1F1-^5F1 N-terminal segment of fibronectin by the tandem beta-zipper mechanism (6-7).

[10] = tested on: endothelial cells; assay: Annexin V apoptosis assay on endothelial cells; type: cell-based; conditions: not shown

Sequence of purified plasma fibronectin (P02751 32-1265 limits assumed): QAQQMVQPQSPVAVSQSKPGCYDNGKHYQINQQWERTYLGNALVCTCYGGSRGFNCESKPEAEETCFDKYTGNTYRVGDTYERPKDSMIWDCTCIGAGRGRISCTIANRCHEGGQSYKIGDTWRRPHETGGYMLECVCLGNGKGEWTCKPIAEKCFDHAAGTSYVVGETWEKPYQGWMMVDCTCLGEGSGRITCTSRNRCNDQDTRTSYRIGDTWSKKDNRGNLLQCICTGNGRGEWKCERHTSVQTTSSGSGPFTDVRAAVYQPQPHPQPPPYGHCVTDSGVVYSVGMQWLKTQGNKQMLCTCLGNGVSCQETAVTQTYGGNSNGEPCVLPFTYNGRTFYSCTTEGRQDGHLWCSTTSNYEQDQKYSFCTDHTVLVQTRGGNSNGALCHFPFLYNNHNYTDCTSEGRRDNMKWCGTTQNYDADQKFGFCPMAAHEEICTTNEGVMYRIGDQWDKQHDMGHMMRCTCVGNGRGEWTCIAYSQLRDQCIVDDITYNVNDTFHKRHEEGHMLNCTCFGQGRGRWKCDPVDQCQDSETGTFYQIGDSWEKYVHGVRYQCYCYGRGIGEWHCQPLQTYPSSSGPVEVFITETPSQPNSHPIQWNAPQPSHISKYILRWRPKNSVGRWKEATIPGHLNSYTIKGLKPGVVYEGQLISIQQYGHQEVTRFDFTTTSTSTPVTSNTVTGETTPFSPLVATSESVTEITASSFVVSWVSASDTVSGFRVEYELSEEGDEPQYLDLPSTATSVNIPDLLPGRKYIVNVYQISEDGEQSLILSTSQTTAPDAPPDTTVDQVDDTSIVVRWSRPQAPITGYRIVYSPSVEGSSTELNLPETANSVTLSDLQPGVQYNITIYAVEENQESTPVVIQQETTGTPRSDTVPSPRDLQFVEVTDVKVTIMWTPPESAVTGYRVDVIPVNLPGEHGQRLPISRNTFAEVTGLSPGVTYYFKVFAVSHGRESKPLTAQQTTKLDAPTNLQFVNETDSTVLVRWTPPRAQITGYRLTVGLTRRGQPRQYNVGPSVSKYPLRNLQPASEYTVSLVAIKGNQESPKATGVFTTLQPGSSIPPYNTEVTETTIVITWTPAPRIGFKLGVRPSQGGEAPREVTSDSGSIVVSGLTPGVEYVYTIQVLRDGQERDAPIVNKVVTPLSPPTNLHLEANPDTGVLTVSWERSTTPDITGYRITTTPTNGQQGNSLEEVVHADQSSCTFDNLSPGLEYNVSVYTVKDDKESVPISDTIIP
Sequence of plasma fibronectin (P02751 32-1265 limits assumed): as above
T1 sequence (P02751 608-700): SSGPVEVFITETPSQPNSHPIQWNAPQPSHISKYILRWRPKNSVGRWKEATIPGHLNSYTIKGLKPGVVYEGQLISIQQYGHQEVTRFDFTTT

| Molecule | induction of plasma fibronectin aggregation (in words) [1] | effect on proliferation of endothelial cells (in words) [2] | co-localization with fibronectin in the extracellular matrix [3] | immunostaining with monoclonal antibody IST 9 (EDA epitope of cellular fibronectin) [3] | binding to the ^1F3 module (in words) [4] | concentration at which matrix assembly is blocked ([5]; high concentrations, 16 hour incubation causes disappearance of pre-existing matrix) | concentration at which fibronectin matrix assembly is promoted ([5]; low concentrations) | thermolysin fragment profile of induced fibronectin aggregates [6] | inhibition of transendothelial migration by induced sFn [7] | stability of the recombinant protein [8] | relative binding to fibronectin thermolysin fragments [9] | fibronectin aggregation on addition of detergent Triton X-100 ([1]; Triton X-100 added, not shown) | potency at inhibiting endothelial cell proliferation relative to Anastellin [2] | Annexin V assays (apoptosis) [10] |
| --- | --- | --- | --- | --- | --- | --- | --- | --- | --- | --- | --- | --- | --- | --- |
| FnbpA peptide D3: S. aureus fibronectin-binding peptide D3 of MSCRAMM FnbpA, synthesized and purified by HPLC; used as control (GFNKHTEIIEEDTNKDKPSYQFGGHNSVDFEEDTLPK) | not the D3 protein induced fibronectin aggregation | only marginally affected the proliferation of cells | co-localize with fibronectin | no different from the staining observed for the no treatment control | did not to bind the ^1F3 module |  |  |  |  |  |  |  |  |  |
| Anastellin: Recombinant form of the C-terminal two-thirds of fibronectin ^1F3 with C-terminal His-tag; known inducer of superfibronectin | induced fibronectin aggregation | concentration dependent manner | co-localize with fibronectin | markedly reduced immunostaining with IST 9 |  | above 20 μM | less than 5 μM | very similar fragment profiles |  |  |  |  |  |  |
| IDLTIDSDLRPKSSLQGIAGSNS (recombinant peptide from residues 153-175 of BBK32) [BBK32(153-175), BBK32 peptide, residues 153-175, containing the motifs similar to anastellin] | induce aggregation of plasma fibronectin in a concentration dependent manner | inhibits human umbilical vein endothelial cell proliferation in a concentration dependent manner |  | indicates conformational changes in fibronectin in matrices produced by fibroblasts |  |  |  |  | as effective at inhibiting transendothelial migration as the full length BBK32 protein |  |  |  |  |  |
| B1 | induced aggregation of fibronectin at lower concentrations than BBK32(21-205) |  |  |  |  |  |  |  |  | unstable and susceptible to degradation |  |  |  |  |
| B2 | induced fibronectin aggregation | inhibited the proliferation of endothelial cells in a concentration dependent manner | co-localize with fibronectin | reduction of immunostaining with IST 9 |  |  |  | very similar fragment profiles |  |  | binds more strongly to the 56 kDa fragment than to the 45 kDa gelatin binding fragment | inhibited fibronectin aggregation | reproducibly more potent at inhibiting endothelial cell proliferation than Anastellin | negative |
